Earlier results as cited in US20200022949A1, “COMPOSITION AND METHOD FOR THE ALLEVIATION OF EFFECTS OF ALCOHOL CONSUMPTION” (Detoxicated Inc., priority 2018, published 2020).

Tested on: non-alcoholic fatty liver disease
Conditions: patients with non-alcoholic fatty liver disease

O=C1c2c(O)cc(O)cc2O[C@H](c2cc(O)c(O)c(O)c2)[C@H]1O [DHM, dihydromyricetin]
liver health (levels of liver enzymes and inflammatory cytokines): improve liver health
